Test results reported in patent US10508120B2, “TYK2 inhibitors and uses thereof” (Nimbus Lakshmi, Inc., priority 2017, dated 2019).
Where two headings read alike, the source gives them in different places.

What was measured:
Tyk2 kinase domain (DH1) = Tyk2 kinase domain (DH1) (Homo sapiens (Human), UniProt P29597); assay: Tyk2 Radioactive Kinase Assay; type: biochemical; conditions: for inhibition at 10 µM: read-out: Tyk2 JH1% Inhibition @ 10 μM
Method in brief: (§1)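 Values are single-concentration percent inhibition figures. They were obtained with 10 μM compound in a radioactivity-based kinase assay run separately on each enzyme.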

[1] = target: human TYK2 (JH2domain-pseudokinase) (Homo sapiens (Human), UniProt P29597); assay: TYK2 JH2 Domain Binding Assay (KINOMEscan)
Chain of human TYK2 (JH2domain-pseudokinase) (P29597 556-888): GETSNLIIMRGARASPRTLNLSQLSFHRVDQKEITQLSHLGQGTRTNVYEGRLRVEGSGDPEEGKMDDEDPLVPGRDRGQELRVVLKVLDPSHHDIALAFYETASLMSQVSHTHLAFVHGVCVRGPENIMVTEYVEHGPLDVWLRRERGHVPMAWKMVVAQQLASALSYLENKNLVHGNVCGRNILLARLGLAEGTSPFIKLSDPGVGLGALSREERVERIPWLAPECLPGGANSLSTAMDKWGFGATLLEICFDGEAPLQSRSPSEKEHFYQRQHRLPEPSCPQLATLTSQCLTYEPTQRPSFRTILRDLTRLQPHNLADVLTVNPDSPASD
Method in brief: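 Pseudokinase domain binding was measured by qPCR of tagged, bead-retained kinase after 1 h room-temperature competition, with 0.9% DMSO and compound up to 30,000 nM in 3-fold steps. Hill-equation Kd, duplicate.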

JAK2 kinase domain (JH1) = JAK2 kinase domain (JH1) (Homo sapiens (Human), UniProt O60674); assay: JAK2 Radioactive Kinase Assay; type: biochemical; conditions: for inhibition at 10 µM: read-out: JAK2 JH1% Inhibition @ 10 μM
Chain of JAK2 kinase domain (JH1) (O60674 849-1124): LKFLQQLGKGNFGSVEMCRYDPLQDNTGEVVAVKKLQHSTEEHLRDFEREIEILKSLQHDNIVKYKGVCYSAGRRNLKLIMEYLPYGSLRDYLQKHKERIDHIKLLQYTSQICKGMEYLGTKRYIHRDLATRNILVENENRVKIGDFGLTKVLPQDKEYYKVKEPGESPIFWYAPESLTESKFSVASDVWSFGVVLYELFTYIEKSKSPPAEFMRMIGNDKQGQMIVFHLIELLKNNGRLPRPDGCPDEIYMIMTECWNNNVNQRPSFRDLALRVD
Method in brief: as §1

Chain of Tyk2 kinase domain (DH1) (P29597 897-1176): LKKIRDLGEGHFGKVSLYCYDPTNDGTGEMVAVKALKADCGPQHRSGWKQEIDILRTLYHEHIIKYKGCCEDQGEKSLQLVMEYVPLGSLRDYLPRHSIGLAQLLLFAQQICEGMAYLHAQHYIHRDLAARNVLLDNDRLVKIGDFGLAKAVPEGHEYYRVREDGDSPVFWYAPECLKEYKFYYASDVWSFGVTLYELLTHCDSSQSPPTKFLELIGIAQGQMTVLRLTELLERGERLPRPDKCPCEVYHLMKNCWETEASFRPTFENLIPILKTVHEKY

Row | SMILES | inhibition at 10 µM (Tyk2 kinase domain (DH1); compound at 10 μM, ATP 10 μM) [%] | Kd [1] [nM] | inhibition at 10 µM (JAK2 kinase domain (JH1); compound at 10 μM, ATP 10 μM) [%] | inhibition at 10 µM (Tyk2 kinase domain (DH1); 10 μM compound, 10 μM ATP) [%] | inhibition at 10 µM (JAK2 kinase domain (JH1); 10 μM compound, 10 μM ATP) [%] | Tyk2 JH1% Inhibition @ 10 μM (Tyk2 kinase domain (DH1); compound at 10 μM, ATP 10 μM) | JAK2 JH1% Inhibition @ 10 μM (JAK2 kinase domain (JH1); compound at 10 μM, ATP 10 μM)
1 | CNc1cc(Nc2cccnc2O[C@H]2CC[C@H](OC)CC2)nc2c(C(=O)NC3CCC3)cnn12 [I-248] | < 50 | 0.2 to 1 | < 50 |  |  |  | 
2 | CNc1cc(Nc2cccn([C@H]3CC[C@H]3O)c2=O)nc2c(C(=O)NC3CC3)cnn12 [I-1103] |  | 1 to 10 |  | < 50 | < 50 |  | 
3 | CNc1cc(Nc2cccn([C@@H]3CCC[C@H](OC)C3)c2=O)nc2c(C(=O)NC3CC3)cnn12 [I-568] | < 50 | < 0.2 | < 50 |  |  |  | 
4 | CNc1cc(Nc2cccc(N3CC[C@@H](OC)C3)n2)nc2c(C(=O)NC3CC3)cnn12 [I-481] | < 50 | 0.2 to 1 | < 50 |  |  |  | 
5 | CNc1cc(Nc2cc(C)nc(N3CCC[C@@H](O)C3)c2)nc2c(C(N)=O)cnn12 [I-61] | < 50 | 0.2 to 1 | < 50 |  |  |  | 
6 | CNc1cc(Nc2cccn([C@@H]3CC[C@H]3O)c2=O)nc2c(C(=O)NC3CC3)cnn12 [I-742] | < 50 | < 0.2 | < 50 |  |  |  | 
7 | CNc1cc(-c2cn(CCN3CCN(C)CC3)c3ncccc23)nc2c(C(=O)N[C@H]3CC[C@@H]3O)cnn12 (stereo in doubt) [I-852, N-(2-hydroxycyclobutyl)-7-(methylamino)-5-(1-(2-(4-methylpiperazin-1-yl)ethyl)-1H-pyrrolo[2,3-b]pyridin-3-yl)pyrazolo[1,5-a]pyrimidine-3-carboxamide] |  | < 0.2 |  | < 50 | < 50 |  | 
8 | CNc1cc(Nc2cccn(C3CCN(CC(F)F)CC3)c2=O)nc2c(C(=O)NC3CC3)cnn12 [I-191] | < 50 | < 0.2 | < 50 |  |  |  | 
9 | CNc1cc(Nc2cc(C)cnc2OC2CC2)nc2c(C(=O)N[C@H]3C[C@H]3F)cnn12 [I-279] | < 50 | < 0.2 | < 50 |  |  |  | 
10 | CNc1cc(Nc2cc(C)cnc2OCCOC)nc2c(C(=O)N[C@H]3C[C@H]3F)cnn12 [I-280] | < 50 | < 0.2 | < 50 |  |  |  | 
11 | CNc1cc(Nc2cccn(-c3ccc(C(=O)N4CCCC4)cn3)c2=O)nc2c(C(=O)NC3CC3)cnn12 [I-129] | < 50 | < 0.2 | < 50 |  |  |  | 
12 | CNc1cc(Nc2cccc([C@@H]3CCCCO3)n2)nc2c(C(=O)N[C@H]3CC[C@H]3O)cnn12 [I-645] | < 50 | 1 to 10 | < 50 |  |  |  | 
13 | CNc1cc(Nc2cc(Cl)cnc2OC(C)C)nc2c(C(N)=O)cnn12 [I-78] | < 50 | < 0.2 | < 50 |  |  |  | 
14 | CNc1cc(Nc2cccc(-c3cn(C)nc3F)n2)nc2c(C(=O)N[C@@H]3CC[C@@H]3O)cnn12 [I-949] |  | 1 to 10 |  | < 50 | < 50 |  | 
15 | CNc1cc(Nc2cc(N3CCCC3)nc(C(F)(F)F)c2)nc2c(C(N)=O)cnn12 [I-112] | < 50 | 1 to 10 | < 50 |  |  |  | 
16 | CNc1cc(Nc2cccn(CCOC3CC3)c2=O)nc2c(C(=O)NCC3(CO)CC3)cnn12 [I-577, 5-((1-(2-cyclopropoxyethyl)-2-oxo-1,2-dihydropyridin-3-yl)amino)-N-((1-(hydroxymethyl)cyclopropyl)methyl)-7-(methylamino)pyrazolo[1,5-a]pyrimidine-3-carboxamide] | < 50 | 0.2 to 1 | < 50 |  |  |  | 
17 | CNc1cc(Nc2cccn([C@H]3CCC[C@@H]3OC)c2=O)nc2c(C(=O)NC3CC3)cnn12 [I-437] |  | 0.2 to 1 |  |  |  | A (percent inhibition at 10 μM lower than 50) | A (percent inhibition at 10 μM lower than 50)
18 | CNc1cc(Nc2cccn([C@@H]3CCN(CCC#N)C3)c2=O)nc2c(C(=O)NC3CC3)cnn12 [I-1012] |  | 0.2 to 1 |  | < 50 | < 50 |  | 
19 | CNc1cc(Nc2cccn(-c3nn(C)c(C)c3C)c2=O)nc2c(C(=O)N[C@@H]3C[C@@H]3F)cnn12 [I-505] | < 50 | 0.2 to 1 | < 50 |  |  |  | 
20 | CNc1cc(-c2cn(C(C)C)c3ncccc23)nc2c(C(=O)NCC(C)(C)CO)cnn12 [I-588, N-(3-hydroxy-2,2-dimethylpropyl)-5-(1-isopropyl-1H-pyrrolo[2,3-b]pyridin-3-yl)-7-(methylamino)pyrazolo[1,5-a]pyrimidine-3-carboxamide] | < 50 | 0.2 to 1 | < 50 |  |  |  | 
